Results as given in US8715714B2, “Uses of rare earth elements for hair improvement” (Micellbio Co., Ltd., priority 2006, dated 2014).
Entries after “also recorded” stand apart in the source; their conditions may differ. Values belong to the compound of their own block, whether it stands above or below them.

Legend:
Type in all cases: cell-based
[1] = test system: Mouse embryo fibroblasts NIH 3T3; test: MTT cell proliferation assay in NIH 3T3 fibroblasts
Description: Mouse embryo fibroblasts NIH 3T3 were cultivated in an incubator at 37° C. ([…], 5% CO2 and 60% humidity) while maintaining a density of 2×10^6 or 4×10^6 cells/ml in Dulbecco's modified Eagle's media (DMEM) supplemented with 10% fetal bovine serum (FBS) and 1% penicillin-streptomycin. Cell proliferation was measured by using MTT [3-(3,5-dimethyl-thiazol-2-yl)-2,5-diphenyltetrazolium bromide] assay. For MTT assay, the cells were plated in a 96-well plate at 2×10^3 cells/ml per well, and treated with a culture medium supplemented with 10% FBS. The cells were stabilized in the incubator for 24 hours, the culture medium supplemented with FBS was replaced by FBS-free DMEM, and the cells were treated with mixed rare earth elements of 10 μg, 1 μg, 100 ng, 10 ng, 1 ng, 100 pg, 10 pg and 1 pg, respectively, and individual rare earth elements of 10 ng. Then, the cells were cultivated for a given time, 50 μl per well of MTT (2 mg/l ml sterilized distilled water) was added thereto, and the mixture was reacted for 4 hours. The reaction mixture was treated with DMSO (dimethyl sulfoxide) and shaken for 30 minutes. Absorbance was measured at 540 nm using an ELISA reader (550, Bio-rad).

tyrosinase [2] = test: Expression of tyrosinase in B16F10 cells by Western blotting; details: mouse melanoma cell line; versus control group; FIG. 9
Description: (§1) Cells were cultivated according to the same process as in Experimental Example 6, and centrifuged (100×g) for 10 minutes to harvest the cells. In order to measure the expression of tyrosinase by Western blotting, 100 μg of the cell extract was resolved on 10% SDS-PAGE, transferred to NC, and then, blocked with TBS containing 5% skim milk. Then, it was reacted with a primary antibody diluted to 1:2,500 (monoclonal anti-tyrosine hydroxylase clone Th-2) and a secondary antibody diluted to 1:5,000 (anti-mouse IgG), respectively, and washed with TBS containing 0.2% Tween-20, and then, photosensitized on an X-ray film using an ECL detection kit. Then, OD values were graphed using an image analysis program of LabWork™ (version 4.4.00.0).

[3] = test system: B16F10, a mouse melanoma cell; test: Melanin production in B16F10 cells; details: mouse melanoma cell line; versus control group; FIG. 10
Description: (§2) Cells were cultivated according to the same process as in Experimental Example 6, and centrifuged (100×g) for 10 minutes to harvest the cells. In order to measure the production of melanin, 200 μg of the cell extract was added to 1 N NaOH (total 1 ml), allowed to stand at room temperature for 30 minutes, and then, absorbance was measured at 400 nm.
(§3) In order to measure the production of melanin, the cells were cultivated and harvested according to the same process as that of Experimental Example 6, and the production of melanin was measured according to the same process as that of Experimental Example 8.

tyrosinase [4] = biological target: T1, tyrosinase (Homo sapiens, UniProt P14679); test: Activity of tyrosinase in Sk-mel-31 cells; details: 10 μg to 1 pg, versus control group, FIG. 7
T1 sequence (P14679 19-529): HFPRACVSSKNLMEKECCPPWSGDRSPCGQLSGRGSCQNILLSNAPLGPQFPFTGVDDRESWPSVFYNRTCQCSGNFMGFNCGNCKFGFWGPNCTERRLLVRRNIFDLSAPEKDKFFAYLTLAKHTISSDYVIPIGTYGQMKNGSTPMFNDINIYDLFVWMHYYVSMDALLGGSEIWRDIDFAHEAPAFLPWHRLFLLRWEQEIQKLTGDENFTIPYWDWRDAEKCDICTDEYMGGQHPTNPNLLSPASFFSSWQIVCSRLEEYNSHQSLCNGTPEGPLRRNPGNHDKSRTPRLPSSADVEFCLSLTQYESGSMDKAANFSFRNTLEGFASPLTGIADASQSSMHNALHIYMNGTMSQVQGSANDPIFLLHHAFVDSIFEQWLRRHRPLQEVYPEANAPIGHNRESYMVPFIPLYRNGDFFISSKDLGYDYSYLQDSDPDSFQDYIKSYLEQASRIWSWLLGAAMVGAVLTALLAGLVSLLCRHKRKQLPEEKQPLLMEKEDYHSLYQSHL
Description: (§4) In order to evaluate the effect of promoting black hair formation, the activity of tyrosinase was measured in Sk-mel-31, a human melanoma cell, and B16F10, a mouse melanoma cell. The cells were cultivated in an incubator at 37° C. (5% CO2 and 60% relative humidity) while maintaining a density of 1×10^6 cells/ml for Sk-mel-31 and 2×10^5 cells/ml for B16F10 in RPMI-1640 medium (containing 1% penicillin-streptomycin and 10% fetal bovine serum). The cells were stabilized in the incubator for 24 hours, and the culture medium containing FBS was replaced by FBS-free RPMI-1640. The cells were treated with mixed rare earth elements of 10 μg, 1 μg, 100 ng, 10 ng, 1 ng, 100 pg, […] and 1 pg, respectively, and individual rare earth elements of 10 ng. In order to measure the activity of tyrosinase, the cells were cultivated for a given time, centrifuged (100×g) for 10 minutes, and harvested. […] The cells were placed in an ice bath for one hour, and centrifuged with 40,000×g at 4° C. for 20 minutes to obtain a cell extract. 130 μl of 5 mM L-DOPA (L-3,4-dihydroxyphenylalanine) and 120 μl of 25 mM MBTH (3-methyl-2-benzothiazolinone hydrazone) were added to 250 μl of an analysis buffer containing 100 mM potassium phosphate (pH 7.1), 4% N,N-dimethylformamide and 0.1% (v/v) Triton X-100, and reacted in a thermostat at 37° C. for 5 minutes, and then, 100 μg of the cell extract was added thereto, and further reacted for 2 hours. Then, 500 μl of 1 M perchloric acid was added thereto and the mixture was centrifuged with 9,000×g at room temperature for 20 minutes. Then, the supernatant was taken and absorbance was measured at 505 nm.

tyrosinase [5] = biological target: T2, tyrosinase (Mus musculus, UniProt P11344); test: Activity of tyrosinase in B16F10 cells; details: 10 μg to 1 pg, versus control group, FIG. 8
T2 sequence (P11344 19-533): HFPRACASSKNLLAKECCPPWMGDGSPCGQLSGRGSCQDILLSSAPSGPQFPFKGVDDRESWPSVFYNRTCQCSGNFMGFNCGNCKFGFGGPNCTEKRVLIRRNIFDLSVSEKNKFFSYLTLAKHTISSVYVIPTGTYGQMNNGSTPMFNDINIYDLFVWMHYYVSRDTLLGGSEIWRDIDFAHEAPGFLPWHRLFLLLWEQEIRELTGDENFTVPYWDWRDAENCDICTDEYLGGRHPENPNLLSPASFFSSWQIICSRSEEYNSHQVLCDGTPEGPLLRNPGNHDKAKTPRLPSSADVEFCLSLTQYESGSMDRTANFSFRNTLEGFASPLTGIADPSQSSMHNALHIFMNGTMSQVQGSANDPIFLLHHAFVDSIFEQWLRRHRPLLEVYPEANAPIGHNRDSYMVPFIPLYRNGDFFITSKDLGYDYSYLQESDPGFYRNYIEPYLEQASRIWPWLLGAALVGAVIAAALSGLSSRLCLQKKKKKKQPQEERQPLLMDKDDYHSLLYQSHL
Description: as §4

[6] = test system: Sk-mel-31, a human melanoma cell; test: Melanin production in Sk-mel-31 cells; details: human melanoma cell line; versus control group; FIG. 10
Description: as §2, §3

tyrosinase [7] = test: Expression of tyrosinase in Sk-mel-31 cells by Western blotting; details: human melanoma cell line; versus control group; FIG. 9
Description: as §1

Compound: [La] [La, lanthanum]
cell proliferation compared with the non-treated group ([1]; 10 μg to 1 pg, FIG. 1): increased
cell proliferation compared with the non-treated group ([1]; each element of 10 ng, FIG. 2): relatively inferior effect
expression of tyrosinase (tyrosinase [2]): relatively lower effect
melanin production [3]: relatively lower effect
tyrosinase activity (tyrosinase [4]): increased; also recorded: relatively lower effect
tyrosinase activity (tyrosinase [5]): increased; also recorded: relatively lower effect
melanin production [6]: relatively lower effect
expression of tyrosinase (tyrosinase [7]): relatively lower effect

tyrosinase activity (tyrosinase [4]): relatively lower effect
tyrosinase activity (tyrosinase [5]): relatively lower effect
Compound: [Nd] [Nd, neodymium]
cell proliferation compared with the non-treated group ([1]; each element of 10 ng, FIG. 2): relatively inferior effect
expression of tyrosinase (tyrosinase [2]): relatively lower effect
melanin production [3]: relatively lower effect
melanin production [6]: relatively lower effect
expression of tyrosinase (tyrosinase [7]): relatively lower effect

Compound: [Gd] [Gd, gadolinium]
cell proliferation compared with the non-treated group ([1]; 10 μg to 1 pg, FIG. 1): increased
cell proliferation compared with the non-treated group ([1]; each element of 10 ng, FIG. 2): relatively inferior effect
expression of tyrosinase (tyrosinase [2]): relatively lower effect
melanin production [3]: relatively lower effect
tyrosinase activity (tyrosinase [4]): increased; also recorded: relatively lower effect
tyrosinase activity (tyrosinase [5]): increased; also recorded: relatively lower effect
melanin production [6]: relatively lower effect
expression of tyrosinase (tyrosinase [7]): relatively lower effect

tyrosinase activity (tyrosinase [4]): relatively lower effect
tyrosinase activity (tyrosinase [5]): relatively lower effect
Compound: [Sm] [Sm, samarium]
cell proliferation compared with the non-treated group ([1]; each element of 10 ng, FIG. 2): relatively inferior effect
expression of tyrosinase (tyrosinase [2]): relatively lower effect
melanin production [3]: relatively lower effect
melanin production [6]: relatively lower effect
expression of tyrosinase (tyrosinase [7]): relatively lower effect

Compound: [Eu] [Eu, europium]
cell proliferation compared with the non-treated group ([1]; 10 μg to 1 pg, FIG. 1): increased
expression of tyrosinase (tyrosinase [2]): substantially the same effect
melanin production [3]: substantially the same effect
tyrosinase activity (tyrosinase [4]): increased; also recorded: substantially the same effect as mixed rare earth elements
tyrosinase activity (tyrosinase [5]): increased; also recorded: substantially the same effect as mixed rare earth elements
melanin production [6]: substantially the same effect
expression of tyrosinase (tyrosinase [7]): substantially the same effect

Compound: [Lu] [Lu, lutetium]
cell proliferation compared with the non-treated group ([1]; each element of 10 ng, FIG. 2): relatively inferior effect
expression of tyrosinase (tyrosinase [2]): relatively lower effect
melanin production [3]: relatively lower effect
tyrosinase activity (tyrosinase [4]): relatively lower effect
tyrosinase activity (tyrosinase [5]): relatively lower effect
melanin production [6]: relatively lower effect
expression of tyrosinase (tyrosinase [7]): relatively lower effect
